Measured values as given in US20260138976A1 (Hoffmann-La Roche Inc., priority 2022, published 2026).
pEC50, pIC50: −log10 of the molar value.

Experiments:
MV-3 cells = experiment: T-cell - TCB - MV3 killing assay; assay type: cell-based, human; settings: for Emax: Homo sapiens, MV-3, 120 h, % TCL normalized: MCSP-TCB only = neutral control, 20 μM reference compound A1 = 100%, read-out: MSCP TCB killing MV-3 cells 5 d Emax (%); for pEC50: primary human T-cells + MV-3 RFP cells, MCSP-TCB 1.5 pM-5 pM, 120 hours imaging, read-out: MSCP TCB killing MV-3 cells 5 d EC50
Protocol: All culturing steps are executed at 5% CO2, 37° C. and 95% humidity. MV-3 RFP cells are cultured in MV-3 medium (DMEM+10% FBS, 1× PenStrep and 0.5 μg/mL Puromycin) for at least 3 weeks. Cultured MV-3 cells at 80% confluency are washed once with PBS−− and trypsinized until detached. […] Cells are seeded with 100 μL/well into a 96-well plate (TTP, #92696), and placed for 40 minutes without moving at room temperature in order to achieve evenly distributed attachment of cells. Plates are then incubated until further use.
On the next day, expanded primary human T-cells are thawed and resuspended in T-cell medium to 4*10^6 cells/mL. For 3 hours, they are cultured in a 6-well plate with 6 mL per well at maximum. After culturing the T-cells, they are filtered through a cell strainer (Miltenyi Biotech, #130-041-407), counted again, and cell concentration is adjusted to 2*10^6 cells/mL.
MCSP-TCB or PBS are pre-diluted in T-cell medium (concentration depending on T-cell donor), 4 times more concentrated than the end-concentration. 60 μL/well of pre-dilutions are then distributed into a round bottom plate (Costar, #3799) according to plate layout. Compounds are added in a 9 pt dose response with the Tecan D300e Digital Dispenser, as well 4 times more concentrated than the end-concentration. DMSO concentration of all wells is adjusted to 0.8%, resulting in 0.2% as final concentration.
60 μL per well of T-cell suspension are added to the prepared round bottom plate and resuspended with a manual multichannel. 100 μL/well of the resuspended T-cell suspension including treatments are then transferred cautiously to the over-night cultured MV-3 cells according to plate layout. 100 μL T-cell medium only is added to the outer MV-3 wells only. Final compound DR is starting at 20 μM with a dilution factor of 3.333. Final TCB concentration is between 1.5 pM to 5 pM and was determined for each T-cell donor individually by running TCB titrations. For each donor, a TCB concentration was chosen which corresponds to 10-20% MV3 baseline cell killing in the absence of compound treatment. Positive control is the reference compound A1 which is added in a DR, as well as additional wells with only 20 μM. 20 μM of reference compound A1 represent the positive stimulator control, TCB only (DMSO wells) the neutral control.
After transfer of T-cells with treatment pre-dilutions, MV-3 cells are imaged by time-lapse microscopy using IncucyteZOOM™ (Essen BioScience, MI, USA). Imaging is performed every 3 hours for a total of 120 hours (10× objective, phase and red image channels, acquisition time 400 ms, Green/Red 4614 optical module). RFP object count per well is analysed in the IncucyteZOOM™ Software (Version 2019B Rev2) with a mask that was previously created and optimized for MV-3 cells. Raw data is exported as object count/well and values are normalized as % TCL compared to wells with MV-3 only, representing 100% growth and therefore 0% TCL.
Calculated % TCL values are analysed in Genedata Screener using Roche Normalization PCT_POS_CTRL with MCSP-TCB only set as Neutral Control and 20 μM of the reference compound A1 set as Stimulator Control/100%.
Induced TCL by compounds without TCB treatment or toxicity (observed in the PBS condition) were be flagged.

DGK ζ kinase = biological target: T1, DGK ζ kinase (Homo sapiens, UniProt Q13574); experiment: DGKzeta kinase ADP Glo assay run by Reaction Biology Corp.; assay type: biochemical; settings: 2 nM kinase, 50 µM ATP, 500 μM DLG, 10-dose duplicate
T1 construct: purchased Reaction Biology Corp. (contract assay service)
Protocol: DGK α and ζ kinases use ATP to phosphorylate the substrate 1,2-dilauroyl-sn-glycerol (DLG). ATP is converted to ADP as a result of this enzymatic reaction.
After the kinase reaction, an ATP-depletion reagent is added to terminate the kinase reaction and deplete any remaining ATP, leaving only ADP. Second, a detection reagent is added to simultaneously convert ADP to ATP and allow the newly synthesized ATP to be converted to light using a coupled luciferase/luciferin reaction.
DGK α and ζ kinase ADP Glo assays were ran by Reaction Biology Corp., 1 Great Valley Parkway, Suite 2, Malvern, 19355, PA, USA. Information provided by the service provider are the following: DGK α and ζ kinases were used at 2 nM final concentration. Reactions were carried out at 50 µM ATP. 500 μM of the substrate DLG (Dilauroyl-sn-glycerol) was used.

T1 sequence (Q13574 whole entry): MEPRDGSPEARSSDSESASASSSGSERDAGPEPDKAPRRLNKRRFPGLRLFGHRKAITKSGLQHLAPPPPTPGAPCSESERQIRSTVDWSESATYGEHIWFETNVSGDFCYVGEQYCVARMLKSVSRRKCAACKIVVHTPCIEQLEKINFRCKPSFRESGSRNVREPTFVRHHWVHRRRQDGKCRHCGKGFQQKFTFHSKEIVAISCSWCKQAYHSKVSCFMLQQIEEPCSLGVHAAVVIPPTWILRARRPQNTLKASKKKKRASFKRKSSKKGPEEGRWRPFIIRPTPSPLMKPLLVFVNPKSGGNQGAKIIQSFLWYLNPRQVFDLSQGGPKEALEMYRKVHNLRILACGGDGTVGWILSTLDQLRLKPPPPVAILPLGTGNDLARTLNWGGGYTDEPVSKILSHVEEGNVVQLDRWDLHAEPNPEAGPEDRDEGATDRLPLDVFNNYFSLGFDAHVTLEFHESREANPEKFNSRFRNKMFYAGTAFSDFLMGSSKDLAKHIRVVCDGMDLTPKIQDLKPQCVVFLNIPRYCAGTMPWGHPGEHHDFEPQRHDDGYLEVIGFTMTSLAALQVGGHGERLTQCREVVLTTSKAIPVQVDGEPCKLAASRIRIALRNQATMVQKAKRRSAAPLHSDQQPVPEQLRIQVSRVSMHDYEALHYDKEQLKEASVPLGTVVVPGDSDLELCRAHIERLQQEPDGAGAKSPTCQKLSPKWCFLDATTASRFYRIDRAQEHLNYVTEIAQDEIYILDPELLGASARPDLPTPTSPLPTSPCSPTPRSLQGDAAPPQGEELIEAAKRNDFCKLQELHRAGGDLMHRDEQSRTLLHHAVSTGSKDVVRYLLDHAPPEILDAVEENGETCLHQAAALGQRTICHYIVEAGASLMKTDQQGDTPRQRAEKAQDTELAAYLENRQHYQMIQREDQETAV

Structure (SMILES): N[C@H]1CS(=O)(=O)c2ccc(-c3nnc(N4CCOC(F)(F)C4)o3)cc2N(Cc2ccc(-c3nnc(C(F)(F)F)o3)cc2)C1=O [Example 80]
- Emax (MV-3 cells): 86%
- pEC50 (MV-3 cells): 6.59

Structure (SMILES): N[C@H]1CS(=O)(=O)c2ccc(-c3nnc(C4(CO)CCCO4)o3)cc2N(Cc2ccc(-c3noc(C(F)(F)F)n3)cc2)C1=O (stereo partly drawn) [Example 54, (3R)-3-amino-7-[5-[2-(hydroxymethyl)tetrahydrofuran-2-yl]-1,3,4-oxadiazol-2-yl]-1,1-dioxo-5-[[4-[5-(trifluoromethyl)-1,2,4-oxadiazol-3-yl]phenyl]methyl]-2,3-dihydro-1λ^6,5-benzothiazepin-4-one]
- Emax (MV-3 cells): 86%
- pEC50 (MV-3 cells): 6.61

Structure (SMILES): CC(N)(c1nnc(-c2ccc3c(c2)N(Cc2ccc(-c4noc(C(F)(F)F)n4)cc2)C(=O)[C@@H](N)CS3(=O)=O)o1)C(F)(F)F (stereo partly drawn) [Example 32, (3R)-3-amino-7-[5-(1-amino-2,2,2-trifluoro-1-methyl-ethyl)-1,3,4-oxadiazol-2-yl]-1,1-dioxo-5-[[4-[5-(trifluoromethyl)-1,2,4-oxadiazol-3-yl]phenyl]methyl]-2,3-dihydro-1λ^6,5-benzothiazepin-4-one]
- pIC50 (DGK ζ kinase): 6.89
- Emax (MV-3 cells): 100%
- pEC50 (MV-3 cells): 6.92

Structure (SMILES): COC(F)(c1nnc(-c2ccc3c(c2)N(Cc2ccc(-c4noc(C(F)(F)F)n4)cc2)C(=O)[C@@H](N)CS3(=O)=O)o1)C(F)(F)F (stereo partly drawn) [Example 37, (3R)-3-amino-1,1-dioxo-7-[5-(1,2,2,2-tetrafluoro-1-methoxy-ethyl)-1,3,4-oxadiazol-2-yl]-5-[[4-[5-(trifluoromethyl)-1,2,4-oxadiazol-3-yl]phenyl]methyl]-2,3-dihydro-1λ^6,5-benzothiazepin-4-one]
- Emax (MV-3 cells): 133%
- pEC50 (MV-3 cells): 7.24

Structure (SMILES): CC(O)(c1nnc(-c2ccc3c(c2)N(Cc2ccc(-c4noc(C(F)(F)F)n4)cc2)C(=O)[C@@H](N)CS3(=O)=O)o1)C(F)(F)F (stereo partly drawn) [Example 96, (3R)-3-amino-1,1-dioxo-7-[5-(2,2,2-trifluoro-1-hydroxy-1-methyl-ethyl)-1,3,4-oxadiazol-2-yl]-5-[[4-[5-(trifluoromethyl)-1,2,4-oxadiazol-3-yl]phenyl]methyl]-2,3-dihydro-1λ^6,5-benzothiazepin-4-one]
- pIC50 (DGK ζ kinase): 6.97

Structure (SMILES): CC(C#N)c1nnc(-c2ccc3c(c2)N(Cc2ccc(-c4noc(C(F)(F)F)n4)cc2)C(=O)[C@@H](N)CS3(=O)=O)o1 (stereo partly drawn) [Example 35, 2-[5-[(3R)-3-amino-1,1,4-trioxo-5-[[4-[5-(trifluoromethyl)-1,2,4-oxadiazol-3-yl]phenyl]methyl]-2,3-dihydro-1λ^6,5-benzothiazepin-7-yl]-1,3,4-oxadiazol-2-yl]propanenitrile]
- Emax (MV-3 cells): 91%
- pEC50 (MV-3 cells): 6.43

Structure (SMILES): N[C@H]1CS(=O)(=O)c2ccc(-c3nnc(C4(N)CCCCC4)o3)cc2N(Cc2ccc(-c3noc(C(F)(F)F)n3)cc2)C1=O [Example 39, (3R)-3-amino-7-[5-(1-aminocyclohexyl)-1,3,4-oxadiazol-2-yl]-1,1-dioxo-5-[[4-[5-(trifluoromethyl)-1,2,4-oxadiazol-3-yl]phenyl]methyl]-2,3-dihydro-1λ^6,5-benzothiazepin-4-one]
- pIC50 (DGK ζ kinase): 7.25
- Emax (MV-3 cells): 72%
- pEC50 (MV-3 cells): 6.72

Structure (SMILES): N[C@H]1CS(=O)(=O)c2ccc(-c3nnc(C4(C5CC5)CCCO4)o3)cc2N(Cc2ccc(-c3noc(C(F)(F)F)n3)cc2)C1=O (stereo partly drawn) [Example 36, (3R)-3-amino-7-[5-(2-cyclopropyl-tetrahydrofuran-2-yl)-1,3,4-oxadiazol-2-yl]-1,1-dioxo-5-[[4-[5-(trifluoromethyl)-1,2,4-oxadiazol-3-yl]phenyl]methyl]-2,3-dihydro-1λ^6,5-benzothiazepin-4-one]
- pIC50 (DGK ζ kinase): 7.29

Structure (SMILES): N[C@H]1CS(=O)(=O)c2ccc(-c3nnc(N4CCC(F)(F)CC4)o3)cc2N(Cc2ccc(-n3ccc(C(F)(F)F)n3)cc2)C1=O [Example 162, (3R)-3-amino-7-[5-(4,4-difluoro-1-piperidyl)-1,3,4-oxadiazol-2-yl]-1,1-dioxo-5-[[4-[3-(trifluoromethyl)pyrazol-1-yl]phenyl]methyl]-2,3-dihydro-1λ^6,5-benzothiazepin-4-one]
- Emax (MV-3 cells): 100%
- pEC50 (MV-3 cells): 6.77

Structure (SMILES): Cn1nc(C(F)(F)F)cc1-c1ccc(CN2C(=O)[C@@H](N)CS(=O)(=O)c3ccc(-c4nnc(C(C)(C)C)o4)cc32)cc1 [Example 92]
- Emax (MV-3 cells): 99%
- pEC50 (MV-3 cells): 6.92

Structure (SMILES): CC(C)(C)c1nnc(-c2ccc3c(c2)N(Cc2ccc(-c4nnc(C(F)(F)F)o4)cc2)C(=O)[C@@H](N)CS3(=O)=O)o1 [Example 24, (3R)-3-amino-7-(5-tert-butyl-1,3,4-oxadiazol-2-yl)-1,1-dioxo-5-[[4-[5-(trifluoromethyl)-1,3,4-oxadiazol-2-yl]phenyl]methyl]-2,3-dihydro-1λ^6,5-benzothiazepin-4-one]
- pIC50 (DGK ζ kinase): 6.29
- Emax (MV-3 cells): 108%
- pEC50 (MV-3 cells): 6.56

Structure (SMILES): CC(C)(C#N)c1nnc(-c2cc3c(cc2F)S(=O)(=O)C[C@H](N)C(=O)N3Cc2ccc(-c3ccc(C(F)(F)F)cn3)cc2)o1 [Example 88, 2-[5-[(3R)-3-amino-8-fluoro-1,1,4-trioxo-5-[[4-[5-(trifluoromethyl)-2-pyridyl]phenyl]methyl]-2,3-dihydro-1λ^6,5-benzothiazepin-7-yl]-1,3,4-oxadiazol-2-yl]-2-methyl-propanenitrile]
- pIC50 (DGK ζ kinase): 8.39

Structure (SMILES): N[C@H]1CS(=O)(=O)c2cc(F)c(-c3noc(C4(CO)CCCO4)n3)cc2N(Cc2ccc(-c3noc(C(F)(F)F)n3)cc2)C1=O (stereo partly drawn) [Example 18, (3R)-3-amino-8-fluoro-7-[5-[2-(hydroxymethyl)tetrahydrofuran-2-yl]-1,2,4-oxadiazol-3-yl]-1,1-dioxo-5-[[4-[5-(trifluoromethyl)-1,2,4-oxadiazol-3-yl]phenyl]methyl]-2,3-dihydro-1λ^6,5-benzothiazepin-4-one]
- Emax (MV-3 cells): 67%
- pEC50 (MV-3 cells): 7.54
